What is called pIC50 is −log10 of the IC50, conventionally taken in molar units. Low readings indicate a large IC50, high ones a small IC50.

Each structure is given as a SMILES string. pIC50: −log10 of the molar value.

This assay has as its system HEK293-STF3A cells. The assay can be described thus: STF3A assay (STF luciferase reporter in Wnt3A-expressing HEK293 cells). Format: cell-based. As to conditions: Homo sapiens, 24 h, 1 day of treatment. An excerpt: HEK293-STF cell line was modified from Human embryonic kidney cell line HEK293 transfected with the STF reporter. HEK293-STF3A cell line was further modified from HEK293-STF cell line to express Wnt3A. This cell line was used to identify compounds that regulate either early or late signaling components of the Wnt pathway. These two cell lines were obtained from David Virshup's laboratory, Duke-NUS. L-Wnt3A (ATCC, #CRL-2647) cell line was used for providing Wnt3A conditioned media. The three cell lines were grown in DMEM with 10% FBS incubated in 37° C. with 5% CO2.
2×10^4 HEK293-STF3A cells in 75 μl culture media were seeded in each well of white 96 well plates (Greiner #655098) and incubated overnight at 37° C. 25 μl serially diluted compound was added to the cells to give final concentration of 50 μM to 1.5 nM. After 1 day of treatment, 100 μl of Steady-Glo Luciferase Assay reagent (#E2520, Promega) was added to each well and incubated for 10 minutes at room temperature. Luminescence was measured using Tecan Safire2 plate reader.
On the technique in general: Reporter assays use an easily measured gene product as a stand-in for the process of interest.

`Cc1ccc(-c2ccc(NC(=O)CN3CCCC4=C3C(=O)N(C)C4=O)nn2)cc1` [Compound 30, 2-(6-methyl-5,7-dioxo-2,3,4,5,6,7-hexahydro-1H-pyrrolo[3,4-b]pyridin-1-yl)-N-(6-(p-tolyl)pyridazin-3-yl)acetamide] had a pIC50 greater than 7.00. Compound `COc1ccc(-c2ccc(NC(=O)CN3CCCC4=C3C(=O)N(C)C4=O)nn2)cc1` [Compound 31, N-(6-(4-methoxyphenyl)pyridazin-3-yl)-2-(6-methyl-5,7-dioxo-2,3,4,5,6,7-hexahydro-1H-pyrrolo[3,4-b]pyridin-1-yl)acetamide] gave a pIC50 greater than 7.00. Under `COc1cccc(-c2ccc(NC(=O)CN3CCCC4=C3C(=O)N(C)C4=O)nn2)c1` [Compound 32, N-(6-(3-methoxyphenyl)pyridazin-3-yl)-2-(6-methyl-5,7-dioxo-2,3,4,5,6,7-hexahydro-1H-pyrrolo[3,4-b]pyridin-1-yl)acetamide] stands greater than 7.00; under `CC(C)N1C(=O)C2=C(C1=O)N(CC(=O)Nc1ccc(-c3ccccc3)nn1)CCC2` [Compound 33, 2-(6-isopropyl-5,7-dioxo-2,3,4,5,6,7-hexahydro-1H-pyrrolo[3,4-b]pyridin-1-yl)-N-(6-phenylpyridazin-3-yl)acetamide], greater than 7.00. Under `Cc1cccc(-c2ccc(NC(=O)CN3CCCC4=C3C(=O)N(C)C4=O)nc2)n1` [Compound 34, 2-(6-methyl-5,7-dioxo-2,3,4,5,6,7-hexahydro-1H-pyrrolo[3,4-b]pyridin-1-yl)-N-(6-methyl-[2,3′-bipyridin]-6′-yl)acetamide] stands greater than 7.00; under `Cc1ccc(-c2cnc(NC(=O)CN3CCCC4=C3C(=O)N(C)C4=O)cn2)cn1` [Compound 35], greater than 6.00; under `CN1C(=O)C2=C(C1=O)N(CC(=O)Nc1ncc(-c3ccccc3)cn1)CCC2` [Compound 36, 2-(6-methyl-5,7-dioxo-2,3,4,5,6,7-hexahydro-1H-pyrrolo[3,4-b]pyridin-1-yl)-N-(5-phenylpyrimidin-2-yl)acetamide], greater than 7.00. As for `CN1C(=O)C2=C(C1=O)N(CC(=O)Nc1ccc(-c3ccccc3)nc1)CCC2` [Compound 37, 2-(6-methyl-5,7-dioxo-2,3,4,5,6,7-hexahydro-1H-pyrrolo[3,4-b]pyridin-1-yl)-N-(6-phenylpyridin-3-yl)acetamide], the figure is greater than 7.00; as for `O=C(CN1CCCC2=C1C(=O)N(C1CCC1)C2=O)Nc1ccc(-c2ccccc2)nn1` [Compound 38, 2-(6-cyclobutyl-5,7-dioxo-2,3,4,5,6,7-hexahydro-1H-pyrrolo[3,4-b]pyridin-1-yl)-N-(6-phenylpyridazin-3-yl)acetamide], greater than 7.00. Regarding `Cc1ccc(-c2ccc(NC(=O)CN3CCCC4=C3C(=O)N(C)C4=O)nc2)cn1` [Compound 39, 2-(6-methyl-5,7-dioxo-2,3,4,5,6,7-hexahydro-1H-pyrrolo[3,4-b]pyridin-1-yl)-N-(6′-methyl-[3,3′-bipyridin]-6-yl)acetamide], the negative logarithm of the IC50 (pIC50) is greater than 7.00. In turn, `Cc1cncc(-c2ccc(NC(=O)CN3CCCC4=C3C(=O)N(C)C4=O)nn2)c1` [Compound 41, 2-(6-methyl-5,7-dioxo-2,3,4,5,6,7-hexahydro-1H-pyrrolo[3,4-b]pyridin-1-yl)-N-(6-(5-methylpyridin-3-yl)pyridazin-3-yl)acetamide] showed a pIC50 greater than 7.00. As to `CN1C(=O)C2=C(C1=O)N(CC(=O)Nc1ccc(-c3cccc(F)c3)nn1)CCC2` [Compound 42, N-(6-(3-fluorophenyl)pyridazin-3-yl)-2-(6-methyl-5,7-dioxo-2,3,4,5,6,7-hexahydro-1H-pyrrolo[3,4-b]pyridin-1-yl)acetamide], the pIC50 is greater than 7.00.

For `Cc1ccc(-c2ccc(NC(=O)CN3CCCC4=C3C(=O)N(C3CC3)C4=O)cn2)cn1` [Compound 44, 2-(6-cyclopropyl-5,7-dioxo-2,3,4,5,6,7-hexahydro-1H-pyrrolo[3,4-b]pyridin-1-yl)-N-(6′-methyl-[2,3′-bipyridin]-5-yl)acetamide], the pIC50 is greater than 7.00.

(Values after patent US9981964B2 (Agency for Science, Technology and Research, priority 2013, dated 2018).)
